Test results reported in patent US20050004037A1, “Osteogenic growth oligopeptides as stimulants of hematopoiesis” (Yissum Research Development Company of the Hebrew …, priority 2001, published 2005).
Ends that are not written are not given here.

B1: G-CSF: granulocyte colony-stimulating factor, positive reference (protein, UniProt P09919 31-207, looked up)
Granulocyte …: TPLGPASSLPQSFLLKCLEQVRKIQGDGAALQEKLVSECATYKLCHPEELVLLGHSLGIPWAPLSSCPSQALQLAGCLSQLHSGLFLYQGLLQALEGISPELGPTLDTLQLDVADFATTIWQQMEELGMAPALQPTQGAMPAFASAFQRRAGGVLVASHLQSFLEVSYRVLRHLAQP

Columns and labels:
[1] = system: white blood cells, monocytes, immature cells; experiment: Total and differential blood cell counts after cyclophosphamide (CFA) chemoablation; type: in vivo, mice; conditions: CFA-induced aplasia
Description: FIGS. 2A-C—OGP(10-14) stimulates blood cell counts in dose and time dependent manner in mice undergoing chemoablation of hematopoietic tissues Male ICR mice weighing 25 gm each were subjected to chemoablation using cyclophosphamide (CFA), 5 mg/mouse, injected intraperitoneally on days 0 and 1, one injection each day. OGP(10-14) was dissolved in “sterile water for injection” and 0.1 ml of the indicated doses or water only (vehicle) was administered subcutaneously in the nape daily from day −7 to day −1 and from day +2 to day +8. Data are mean±SD obtained in 20 animals per condition. *: significant over CFA+vehicle, p<0.05; **: significant over 1 nmol OGP(10-14) group, p<0.05.
In this set of experiments bone marrow ablation was induced by an intraperitoneal injection of cyclophophamide (CFA, SIGMA, 5 mg/mouse in 150 (1 sterile PBS) for two consecutive days (designated “day 0” and “day 1”. This protocol has been demonstarted to induce severe, reversible leucopoena with L. D. <30 [Spangrude, G. J. et al, Science, 241:58 (1988)]. The lowest bone marrow cell counts were recorded six days after the first injection. […]

[2] = Evaluation of OGP(10-14) toxicity after 15 days of subcutaneous administration; type: in vivo, mice; conditions: 10 nmol/mouse s.c., versus placebo-treated controls
Description: Fifty-five mice were evaluated for possible OGP(10-14)-related toxicity after 15 days of subcutaneous administration, at the dose of 10 nmol/mouse, and results were compared to those obtained in 30 placebo-treated controls.

[3] = system: CFU-GM, CFU-GEMM and BFU-E; experiment: Ex vivo progenitor cell (colony forming) assays on bone marrow of treated chemoablated mice; type: in vivo; conditions: bone marrow of CFA-ablated mice, 10 nmol/day s.c.
Description: Male ICR mice weighing 25 gm each were subjected to chemoablation using cyclophosphamide (CFA), 5 mg/mouse, injected intraperitoneally on days 0 and 1, one injection each day. OGP(10-14) was dissolved in “sterile water for injection” at 100 nmol/ml concentration and 0.1 ml of this solution or water only (vehicle) was administered subcutaneously in the nape daily for the indicated period(s). Bone marrow was harvested on day 9 and analyzed for colony forming units. Data are meam±SD obtained in 10 animals per condition.
To evaluate different dosing regimens of OGP(10-14), chemoablated mice were subjected to daily treatment with OGP(10-14), as outlined in FIG. 4. The mice were sacrificed on day +15, the femoral bone marrow was flushed and single cell suspensions (prepared as above) were subjected to ex vivo progenitor cell (colony forming) assays. The OGP(10-14) effect on the formation of CFU-GM, CFU-GEMM and BFU-E was compared to that of G-CSF (FIG. 4).
Bone marrow cells were recovered on day +10 after injection of CFA from all groups. Cells were diluted to 2×10^6/ml in Iscove's Modified Dulbecco Medium(IMFM) with 2% FBS and added to methylcellulose medium according to the manufacturer's recommendations (MethoCult, StemCell Technologies Inc., Vancouver, Canada). 2×10^4 cells were plated in each test. Both M3434 (for murine GM-CFU, and GEMM-CFU) and M3334 for (murine BFU-E assay) were used. M3434 was supplemented with recombinant murine interleukine-3 (rmIL-3, 10 ng/ml), recombinant human interleukine-6 (rhIL-6, 10 ng/ml), recombinant murine stem cell factor (rmSCF, 50 ng/ml) and recombinant human erythropoietin (rhEpo, 3 U/ml). […] the only factor included was Epo. Duplicate tests for each mouse were blindly examined after 14 days of incubation according to the protocol procedures.

[4] = OGP(10-14) effect only where treatment began 7 days before chemoablation

Row | Molecule | toxicity at the employed doses [1] | haematological parameters: number of WBC, RBC, PLT, Hb level [2] | survival, behaviour, body weight gain and gross examination [2] | CFU-GM [3] | BFU-E [3, 4] | CFU-GEMM [3, 4]
1 | YGFGG [OGP(10-14), Tyr-Gly-Phe-Gly-Gly] | without any valuable toxicity | did not induce any significant modifications | No differences were found |  |  | 
2 | B1 |  |  |  | had an effect | effect only on the CFU-GM | effect only on the CFU-GM
